The first experiment relates to HT-1080 (ATCC, CCL-121) cells. The experiment is described as follows: HT-1080 cell viability assay with ferroptosis inducer RSL3 (Cell Titer-Glo). The class given is cell-based. The note with it: Homo sapiens; HT-1080 cells treated with RSL3; 3-fold, 10-point dilution, 1.1 μM highest concentration; Table 2; read-out: EC50 (nM), ferroptosis inhibitory activity. In short, it runs like this:
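HT-1080 cells (6000 per well) were cultured overnight at 37 °C, then co-treated with RSL3 and compound in a 3-fold, 10-point series topping at 1.1 μM. Viability was read by CellTiter-Glo luminescence and normalized to untreated controls. EC50 came from a sigmoidal non-linear regression fit.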
As for `CC1CCCN(c2ccc(Nc3ccc4c(c3)CN(C)C4=O)cc2)C1` (stereo not shown) [Compound 241, 2-methyl-5-((4-(3-methylpiperidin-1-yl)phenyl)amino)isoindolin-1-one], the EC50 was 0.1 to 100 nM.
For `CC1(C)c2ccc(Nc3ccc(N4CCC(C(F)(F)F)CC4)cc3)cc2CN1C(=O)C1CC1` [Compound 189, cyclopropyl(1,1-dimethyl-5-((4-(4-(trifluoromethyl)piperidin-1-yl)phenyl)amino)isoindolin-2-yl)methanone], the EC50 was 0.1 to 100 nM.
On the same count and under the same terms, in the case of `COC1(C(F)(F)F)CCN(c2ccc(Nc3ccc4oc(=O)n(C)c4c3)cc2)CC1` [Compound 390, 5-((4-(4-methoxy-4-(trifluoromethyl)piperidin-1-yl)phenyl)amino)-3-methylbenzo[d]oxazol-2(3H)-one] it was 0.1 to 100 nM; in that of `CC1CN(c2ccc(Nc3ccc4c(c3)nc(N)n4C)cc2)CC(C)O1` (stereo not shown) [Compound 435], 0.1 to 100 nM; in that of `CCCCOc1ccc(Nc2ccc3c(c2)OCC(=O)N3C)cc1` [Compound 5, 7-((4-butoxyphenyl)amino)-4-methyl-2H-benzo[b][1,4]oxazin-3(4H)-one], 0.1 to 100 nM.
With `CC1CCN(c2ccc(Nc3ccc4c(c3)OCC(=O)N4C)cc2)CC1` [Compound 1, 4-methyl-7-((4-(4-methylpiperidin-1-yl)phenyl)amino)-2H-benzo[b][1,4]oxazin-3(4H)-one], the EC50 was 0.1 to 100 nM.
Still for that read-out and setting: in the case of `NC(=O)CCCN1C(=O)COc2cc(Nc3ccc(N4CCC(C(F)(F)F)CC4)cc3)ccc21` [Compound 46, 4-(3-oxo-7-((4-(4-(trifluoromethyl)piperidin-1-yl)phenyl)amino)-2,3-dihydro-4H-benzo[b][1,4]oxazin-4-yl)butanamide] it was 0.1 to 100 nM; in that of `CC1CC(c2ccc(Nc3ccc4c(c3)OCC(=O)N4)cc2)CC(C)O1` (stereo not shown) [Compound 92, 7-((4-(2,6-dimethyltetrahydro-2H-pyran-4-yl)phenyl)amino)-2H-benzo[b][1,4]oxazin-3(4H)-one], 0.1 to 100 nM; in that of `CC1CCCCN1c1ccc(Nc2ccc3c(c2)n(C)c(=O)n3C)cc1` (stereo not shown) [Compound 368, 1,3-dimethyl-5-((4-(2-methylpiperidin-1-yl)phenyl)amino)-1,3-dihydro-2H-benzo[d]imidazol-2-one], 0.1 to 100 nM.
On to `Cn1ccc2cc(Nc3ccc4c(c3)n(C)c(=O)n4C)ccc21` [Compound 266, 1,3-dimethyl-5-((1-methyl-1H-indol-5-yl)amino)-1,3-dihydro-2H-benzo[d]imidazol-2-one], for which the EC50 was in the range of 0.1 to 100 nM.
Take `CN(C)CCn1c(=O)oc2ccc(Nc3ccc(N4CCC(C(F)(F)F)CC4)cc3)cc21` [Compound 429, 3-(2-(dimethylamino)ethyl)-5-((4-(4-(trifluoromethyl)piperidin-1-yl)phenyl)amino)benzo[d]oxazol-2(3H)-one]: the EC50 lay within 0.1 to 100 nM.
Take `Cc1cc(Nc2ccc3c(c2)OCC(=O)N3C)cnc1N1CC(C)OC(C)C1` (stereo not shown) [Compound 143, 7-((6-(2,6-dimethylmorpholino)-5-methylpyridin-3-yl)amino)-4-methyl-2H-benzo[b][1,4]oxazin-3(4H)-one]: the EC50 lay within 0.1 to 100 nM.
As to `CC1CCN(c2ccc(Nc3ccc4c(c3)c(N)nn4C)cc2)CC1` [Compound 352, 1-methyl-N5-(4-(4-methylpiperidin-1-yl)phenyl)-1H-indazole-3,5-diamine], the EC50 was 0.1 to 100 nM.
The same measure, in the same setting: in the case of `CCn1[nH]c2cc(Nc3ccc(N4CCC(C(F)(F)F)CC4)cc3)ccc2c1=O` [Compound 252, 2-ethyl-6-((4-(4-(trifluoromethyl)piperidin-1-yl)phenyl)amino)-1,2-dihydro-3H-indazol-3-one] it was 0.1 to 100 nM; in that of `CN1C(=O)COc2cc(Nc3ccc(N4CC(C)(C)OC(C)(C)C4)cc3)ccc21` [Compound 93, 4-methyl-7-((4-(2,2,6,6-tetramethylmorpholino)phenyl)amino)-2H-benzo[b][1,4]oxazin-3(4H)-one], 0.1 to 100 nM; in that of `CN1CCOc2cc(Nc3ccc4c(c3)n(C)c(=O)n4C)ccc21` [Compound 288, 1,3-dimethyl-5-((4-methyl-3,4-dihydro-2H-benzo[b][1,4]oxazin-7-yl)amino)-1,3-dihydro-2H-benzo[d]imidazol-2-one], 0.1 to 100 nM.
Same read-out and setting: to `CN1C(=O)COc2cc(Nc3ccc(N4CC5CCC4CO5)c(F)c3)ccc21` (stereo not shown) [Compound 98, 7-((4-(2-oxa-5-azabicyclo[2.2.2]octan-5-yl)-3-fluorophenyl)amino)-4-methyl-2H-benzo[b][1,4]oxazin-3(4H)-one] belongs 0.1 to 100 nM.
The same measure, in the same setting: in the case of `CN1C(=O)COc2cc(Nc3ccc(C4CCC(C)(C)CC4)cc3)ccc21` [Compound 35, 7-((4-(4,4-dimethylcyclohexyl)phenyl)amino)-4-methyl-2H-benzo[b][1,4]oxazin-3(4H)-one] it was 0.1 to 100 nM; in that of `COc1cc(Nc2ccc3c(c2)OCC(=O)N3C)ccc1N1CC(C)OC(C)C1` (stereo not shown) [Compound 70, 7-((4-(2,6-dimethylmorpholino)-3-methoxyphenyl)amino)-4-methyl-2H-benzo[b][1,4]oxazin-3(4H)-one], 0.1 to 100 nM.
For `Cn1c(=O)oc2cc(Nc3ccc(C4CCC(C)(C)CC4)cc3)ccc21` [Compound 406, 6-((4-(4,4-dimethylcyclohexyl)phenyl)amino)-3-methylbenzo[d]oxazol-2(3H)-one], the EC50 fell in the range of 0.1 to 100 nM.
On the same count and under the same terms, in the case of `C/N=C1\c2ccc(Nc3ccc(N4CCC(C(F)(F)F)CC4)cc3)cc2CN1C` [Compound 313, 2-methyl-1-(methylimino)-N-(4-(4-(trifluoromethyl)piperidin-1-yl)phenyl)isoindolin-5-amine] it was 0.1 to 100 nM; in that of `CCC1CN(c2ccc(Nc3ccc4c(c3)OCC(=O)N4C)c(C)c2)CCO1` (stereo not shown) [Compound 147, 7-((4-(2-ethylmorpholino)-2-methylphenyl)amino)-4-methyl-2H-benzo[b][1,4]oxazin-3(4H)-one], 0.1 to 100 nM; in that of `Cc1nc(N2CC(C)OC(C)C2)ccc1Nc1ccc2c(c1)OCC(=O)N2C` (stereo not shown) [Compound 69, 7-((6-(2,6-dimethylmorpholino)-2-methylpyridin-3-yl)amino)-4-methyl-2H-benzo[b][1,4]oxazin-3(4H)-one], 0.1 to 100 nM.
Still for that read-out and setting: in the case of `Cc1cc(C)c(Nc2ccc3c(c2)CN(C)C3=O)cn1` [Compound 236, 5-((4,6-dimethylpyridin-3-yl)amino)-2-methylisoindolin-1-one] it was 0.1 to 100 nM; in that of `CC1CN(c2ccc(Nc3ccc4c(c3)OCC(=O)N4)cc2)CCO1` (stereo not shown) [Compound 148, 7-((4-(2-methylmorpholino)phenyl)amino)-2H-benzo[b][1,4]oxazin-3(4H)-one], 0.1 to 100 nM.

The experiment is the same for the next values; noted with them: Homo sapiens; HT-1080 cells treated with RSL3; 3-fold, 10-point dilution, 1.1 μM highest concentration; Table 3; read-out: EC50 (nM), ferroptosis inhibitory activity.
For the compound `Cc1cc(N2CCC(C(F)(F)F)CC2)ccc1Nc1ccc2c(c1)OC(CO)C(=O)N2C` (stereo not shown) [Compound 570, 2-(hydroxymethyl)-4-methyl-7-((2-methyl-4-(4-(trifluoromethyl)piperidin-1-yl)phenyl)amino)-2H-benzo[b][1,4]oxazin-3(4H)-one], the EC50 lay within 0.1 to 100 nM.
In the case of `Cc1cc(N2CCC(C)(O)CC2)ccc1Nc1ccc2c(c1)OCC(=O)N2` [Compound 541, 7-((4-(4-hydroxy-4-methylpiperidin-1-yl)-2-methylphenyl)amino)-2H-benzo[b][1,4]oxazin-3(4H)-on], the EC50 lay within 100 to 1000 nM.
Same read-out and setting: in the case of `CCC1CN(c2ccc(Nc3ccc4c(c3)ncn4C)c(C)n2)CCO1` (stereo not shown) [Compound 603, N-[6-(2-ethylmorpholin-4-yl)-2-methylpyridin-3-yl]-1-methyl-1,3-benzodiazol-5-amine] it was 0.1 to 100 nM.
The same measure, in the same setting: in the case of `Cc1cc(N2CCN(C(=O)C(F)(F)F)[C@@H](C)C2)ccc1Nc1ccc2c(c1)OCC(=O)N2` [Compound 552, (S)-7-((2-methyl-4-(3-methyl-4-(2,2,2-trifluoroacetyl)piperazin-1-yl)phenyl)amino)-2H-benzo[b][1,4]oxazin-3(4H)-one] it was 0.1 to 100 nM.
On to `Cc1cc(N2CCC(C(F)(F)F)C2)ccc1Nc1ccc2c(c1)OCC(=O)N2` (stereo not shown) [Compound 587, 7-((2-methyl-4-(3-(trifluoromethyl)pyrrolidin-1-yl)phenyl)amino)-2H-benzo[b][1,4]oxazin-3(4H)-one], for which the EC50 fell in the range of 0.1 to 100 nM.
Same read-out and setting: in the case of `Cc1cc(N2CC(C)OC(C)C2)ccc1Nc1cnc2c(c1)OCC(=O)N2C` (stereo not shown) [Compound 457, 7-((4-(2,6-dimethylmorpholino)-2-methylphenyl)amino)-4-methyl-2H-pyrido[3,2-b][1,4]oxazin-3(4H)-one] it was 0.1 to 100 nM; in that of `O=C1COc2cc(Nc3ccc(N4CCC(C(F)(F)F)CC4)c(F)c3)ccc2N1` [Compound 486, 7-((3-fluoro-4-(4-(trifluoromethyl)piperidin-1-yl)phenyl)amino)-2H-benzo[b][1,4]oxazin-3(4H)-one], 0.1 to 100 nM.
On to `Cc1cc(N2CCC(C(F)(F)F)CC2)ccc1Nc1ccc2c(c1)OCC(=O)N(C)C2` [Compound 631, 4-methyl-8-((2-methyl-4-(4-(trifluoromethyl)piperidin-1-yl)phenyl)amino)-4,5-dihydrobenzo[f][1,4]oxazepin-3(2H)-one], for which the EC50 lay within 0.1 to 100 nM.
The same measure, in the same setting: to `Cc1cc(N2CCC(C(F)(F)F)CC2)ccc1Nc1ccc2c(c1)OCC(=O)NC2` [Compound 608, 8-((2-methyl-4-(4-(trifluoromethyl)piperidin-1-yl)phenyl)amino)-4,5-dihydrobenzo[f][1,4]oxazepin-3(2H)-one] belongs 0.1 to 100 nM; to `Cc1cc(N2CCC(C(F)(F)F)CC2)ccc1Nc1ccc2c(c1)OCCC(=O)N2` [Compound 533], 0.1 to 100 nM; to `Cc1cc(N2C[C@@H](C)O[C@@H](C)C2)ccc1Nc1ccc2cnn(C)c2c1` [Compound 638, N-(4-((2S,6R)-2,6-dimethylmorpholino)-2-methylphenyl)-1-methyl-1H-indazol-6-amine], 0.1 to 100 nM.
On the same count and under the same terms, to `Cc1cc(N2CC(C)OC(C)C2)ccc1Nc1ccc2c(c1)CCNC2` (stereo not shown) [Compound 528, N-(4-(2,6-dimethylmorpholino)-2-methylphenyl)-1,2,3,4-tetrahydroisoquinolin-6-amine] belongs 0.1 to 100 nM.

As a reminder, the EC50 is the concentration needed to bring the measured effect to its halfway point.
